# ChEMBL document CHEMBL1201862, “PubChem BioAssay data set” (2004)
#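 The compound was tested at five concentrations on cells cultured in 96-well plates, with a 48-hour exposure period. Here, GI50 denotes the concentration required for 50% inhibition of growth.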 Activity calls are given as the source filed them. Cut-off read from the data, not from the text of the source: active = GI50 up to about 1.1 µM and inactive = higher.
# Assays:
# Experiment in all cases: growth of human tumour cells (NCI), 48 h
# SR = test system: SR
# HCT-15 = test system: HCT-15
# SK-OV-3 = test system: SK-OV-3
# HOP-92 = test system: HOP-92
# OVCAR-5 = test system: OVCAR-5
# DMS-114 = test system: DMS-114
# OVCAR-8 = test system: OVCAR-8
# NCI-H226 = test system: NCI-H226
# KM12 = test system: KM12
# 786-0 = test system: 786-0
# SNB-19 = test system: SNB-19
# SN12C = test system: SN12C
# LOX IMVI = test system: LOX IMVI
# SNB-75 = test system: SNB-75
# CCRF-CEM = test system: CCRF-CEM
# OVCAR-4 = test system: OVCAR-4
# COLO 205 = test system: COLO 205
# EKVX = test system: EKVX
Structure (SMILES),GI50 (SR),GI50 (HCT-15) [µM],GI50 (SK-OV-3),GI50 (HOP-92),GI50 (OVCAR-5),GI50 (DMS-114),GI50 (OVCAR-8),GI50 (NCI-H226),GI50 (KM12),GI50 (786-0),GI50 (SNB-19),GI50 (SN12C),GI50 (LOX IMVI),GI50 (SNB-75),GI50 (CCRF-CEM),GI50 (OVCAR-4),GI50 (COLO 205),GI50 (EKVX)
c1ccc(OCc2nnc3n2N=C(c2ccccc2)CS3)cc1,> 100 µM (inactive),> 100,> 100 µM (inactive),> 100 µM (inactive),> 100 µM (inactive),> 100 µM (inactive),> 100 µM (inactive),> 100 µM (inactive),> 100 µM (inactive),> 100 µM (inactive),> 100 µM (inactive),> 100 µM (inactive),> 100 µM (inactive),33 µM (inactive),> 100 µM (inactive),> 100 µM (inactive),,
Nc1ncnc2c(C3OC(CO)C(O)C3O)scc12 (stereo not drawn),0.319 µM (active),0.00278,< 0.001 µM (active),0.0117 µM (active),0.0222 µM (active),0.0292 µM (active),0.00179 µM (active),0.0386 µM (active),< 0.001 µM (active),0.217 µM (active),1.38 µM (inactive),0.373 µM (active),0.0566 µM (active),0.459 µM (active),0.0597 µM (active),0.0468 µM (active),0.026 µM (active),1.04 µM (active)
O=C(Nc1cc(Cl)ccc1Cl)C(=O)C(c1cnc2ccccc2n1)[N+](=O)[O-] (stereo not drawn),> 100 µM (inactive),> 100,> 100 µM (inactive),> 100 µM (inactive),> 100 µM (inactive),> 100 µM (inactive),> 100 µM (inactive),> 100 µM (inactive),> 100 µM (inactive),> 100 µM (inactive),> 100 µM (inactive),> 100 µM (inactive),> 100 µM (inactive),> 100 µM (inactive),> 100 µM (inactive),> 100 µM (inactive),> 100 µM (inactive),> 100 µM (inactive)
CC1=CC(=O)N2[C@H](OC[C@@H]2C(C)C)O1,> 100 µM (inactive),> 100,> 100 µM (inactive),> 100 µM (inactive),,> 100 µM (inactive),> 100 µM (inactive),> 100 µM (inactive),> 100 µM (inactive),> 100 µM (inactive),> 100 µM (inactive),> 100 µM (inactive),,> 100 µM (inactive),> 100 µM (inactive),> 100 µM (inactive),> 100 µM (inactive),> 10 µM (inactive)
Cc1ccc(N2C(=O)/C(=C/c3ccc(N(CCC#N)CCC#N)cc3)N=C2COc2ccc(Cl)cc2Cl)cc1,> 100 µM (inactive),> 100,> 100 µM (inactive),,> 100 µM (inactive),> 100 µM (inactive),> 100 µM (inactive),> 100 µM (inactive),> 100 µM (inactive),> 100 µM (inactive),> 100 µM (inactive),> 100 µM (inactive),> 100 µM (inactive),> 100 µM (inactive),> 100 µM (inactive),> 100 µM (inactive),> 100 µM (inactive),> 100 µM (inactive)
N#C/N=C(\N)NCCO,30.7 µM (inactive),38.7,> 100 µM (inactive),> 100 µM (inactive),> 100 µM (inactive),75.3 µM (inactive),> 100 µM (inactive),> 100 µM (inactive),> 100 µM (inactive),38.1 µM (inactive),> 100 µM (inactive),> 100 µM (inactive),,> 100 µM (inactive),,> 100 µM (inactive),52.2 µM (inactive),> 100 µM (inactive)
C/N=c1\ss/c(=N\C(=S)N(C)C)n1C1CCCCC1,,> 31.6,24.2 µM (inactive),> 10 µM (inactive),> 31.6 µM (inactive),> 31.6 µM (inactive),> 31.6 µM (inactive),> 31.6 µM (inactive),> 31.6 µM (inactive),> 10 µM (inactive),> 31.6 µM (inactive),> 31.6 µM (inactive),> 31.6 µM (inactive),> 10 µM (inactive),> 31.6 µM (inactive),> 31.6 µM (inactive),> 31.6 µM (inactive),> 31.6 µM (inactive)
Cc1c(C(=O)CC(=O)C(=O)NC2C3CC4CC(C3)CC2C4)[n+]([O-])c2ccccc2[n+]1[O-] (stereo not drawn),> 100 µM (inactive),> 100,> 100 µM (inactive),> 100 µM (inactive),> 100 µM (inactive),> 100 µM (inactive),> 100 µM (inactive),> 100 µM (inactive),> 100 µM (inactive),> 100 µM (inactive),> 100 µM (inactive),> 100 µM (inactive),> 100 µM (inactive),> 100 µM (inactive),90.6 µM (inactive),> 100 µM (inactive),> 100 µM (inactive),> 100 µM (inactive)
CCOC(=O)c1cnc2sc3ccc4ccccc4c3n2c1=O,40.1 µM (inactive),46.3,78.5 µM (inactive),28.1 µM (inactive),> 100 µM (inactive),71.6 µM (inactive),48.6 µM (inactive),30.1 µM (inactive),68.4 µM (inactive),> 100 µM (inactive),> 100 µM (inactive),39.3 µM (inactive),47.9 µM (inactive),> 100 µM (inactive),25.1 µM (inactive),38.9 µM (inactive),79.3 µM (inactive),74 µM (inactive)
COc1ccc(Oc2ccccc2N)cc1,18.3 µM (inactive),9.51,> 100 µM (inactive),96.2 µM (inactive),48.6 µM (inactive),37.2 µM (inactive),56.2 µM (inactive),41.9 µM (inactive),20.9 µM (inactive),,,44.8 µM (inactive),81.1 µM (inactive),23.7 µM (inactive),10.7 µM (inactive),57.3 µM (inactive),16.6 µM (inactive),93.8 µM (inactive)
NNC(=O)/C(NC(=O)c1ccccc1)=C(\N)c1ccc(Cl)cc1,83.8 µM (inactive),> 100,> 100 µM (inactive),> 100 µM (inactive),> 100 µM (inactive),> 100 µM (inactive),> 100 µM (inactive),> 100 µM (inactive),> 100 µM (inactive),> 100 µM (inactive),> 100 µM (inactive),> 100 µM (inactive),> 100 µM (inactive),> 100 µM (inactive),38.2 µM (inactive),> 100 µM (inactive),> 100 µM (inactive),> 100 µM (inactive)
CC1=C2[C@H](c3ccccc3)C3C=CC2(c2ccccc23)N(C(=O)C(c2ccccc2)c2ccccc2)C1=O (stereo partly drawn),> 100 µM (inactive),> 100,> 100 µM (inactive),> 100 µM (inactive),> 100 µM (inactive),> 100 µM (inactive),> 100 µM (inactive),,> 100 µM (inactive),> 100 µM (inactive),> 100 µM (inactive),> 100 µM (inactive),> 100 µM (inactive),> 100 µM (inactive),> 100 µM (inactive),> 100 µM (inactive),> 100 µM (inactive),> 100 µM (inactive)
c1ccc(C2=NOC3(c4ccccc4)SC4CCCCC4CN23)cc1 (stereo not drawn),25 µM (inactive),26.7,77.4 µM (inactive),15.9 µM (inactive),> 100 µM (inactive),15.6 µM (inactive),,36.6 µM (inactive),25.5 µM (inactive),49.1 µM (inactive),62.4 µM (inactive),52.5 µM (inactive),17 µM (inactive),18.2 µM (inactive),6.38 µM (inactive),45 µM (inactive),27.6 µM (inactive),57.9 µM (inactive)
COc1cc2c(cc1OC)C(C(c1ccccc1)c1ccccc1)N(C)CC2 (stereo not drawn),,> 100,79.3 µM (inactive),29.2 µM (inactive),> 100 µM (inactive),41.8 µM (inactive),> 100 µM (inactive),> 92.9 µM (inactive),> 100 µM (inactive),,> 100 µM (inactive),> 100 µM (inactive),> 81.1 µM (inactive),49.1 µM (inactive),64.7 µM (inactive),> 94 µM (inactive),16.1 µM (inactive),> 100 µM (inactive)
COc1ccc2c(c1)[n+]([O-])c(-c1ccc(C)cc1)c(N)[n+]2[O-],> 100 µM (inactive),45.8,> 100 µM (inactive),> 100 µM (inactive),66.5 µM (inactive),24.9 µM (inactive),66.2 µM (inactive),> 100 µM (inactive),44.8 µM (inactive),70.8 µM (inactive),> 100 µM (inactive),> 100 µM (inactive),,45.1 µM (inactive),,88.7 µM (inactive),20.2 µM (inactive),67.8 µM (inactive)
CC(C)(c1ccc(OC#N)cc1)c1ccc(OC#N)cc1,27 µM (inactive),20.3,> 100 µM (inactive),> 100 µM (inactive),> 100 µM (inactive),> 41.5 µM (inactive),> 100 µM (inactive),> 100 µM (inactive),> 100 µM (inactive),> 100 µM (inactive),> 100 µM (inactive),> 100 µM (inactive),> 48.4 µM (inactive),> 52.5 µM (inactive),> 55.7 µM (inactive),> 100 µM (inactive),> 46.6 µM (inactive),> 100 µM (inactive)
O=C1C=C2SC3C[C@@]24CC1[N+]1=c2c4c(c(O)c4c2=C(C=N4)CC1)N3,,3.4,2.96 µM (inactive),> 100 µM (inactive),2.17 µM (inactive),1.39 µM (inactive),2.03 µM (inactive),2.29 µM (inactive),2.13 µM (inactive),,5.31 µM (inactive),2.67 µM (inactive),2.51 µM (inactive),4.61 µM (inactive),2 µM (inactive),1.66 µM (inactive),1.91 µM (inactive),2.27 µM (inactive)
